Measurements published in patent publication US7820655B2, “Ethanol or 1,2-ethanediol cyclohexyl antibiotic derivatives” (Actelion Pharmaceuticals Ltd., priority 2006, dated 2010).
Values after ≈ are worked out from the molar mass of the structure shown.

Experiments:
Format in all cases: cell-based
S. Pneumoniae 49619 = assay: MIC by broth microdilution (NCCLS), S. Pneumoniae 49619; conditions: Streptococcus pneumoniae, cation-adjusted Mueller-Hinton Broth, pH 7.2-7.3
Protocol: (§1) These assays have been performed following the description given in “Methods for dilution Antimicrobial Susceptibility Tests for Bacteria that Grow Aerobically, 4th ed.; Approved standard: NCCLS Document M7-A4; National Committee for Clinical Laboratory Standards Villanova, Pa., USA, 1997”. Minimal inhibitory concentrations (MICs; mg/l) were determined in cation-adjusted Mueller-Hinton Broth (BBL) by a microdilution method following NCCLS guidelines (National Committee for Clinical Laboratory Standards. Methods for Dilution Antimicrobial Susceptibility). The pH of the test medium was 7.2-7.3.

M. catarrhalis A894 = assay: MIC by broth microdilution (NCCLS), M. catarrhalis A894; conditions: Moraxella catarrhalis, cation-adjusted Mueller-Hinton Broth, pH 7.2-7.3
Protocol: as §1

S. aureus A798 = assay: MIC by broth microdilution (NCCLS), S. aureus A798; conditions: Staphylococcus aureus, cation-adjusted Mueller-Hinton Broth, pH 7.2-7.3
Protocol: as §1

| MIC (S. Pneumoniae 49619) | MIC (M. catarrhalis A894) | MIC (S. aureus A798) | SMILES |
| --- | --- | --- | --- |
| 0.063 µg/mL (≈ 0.127 µM) | ≤ 0.031 µg/mL | ≤ 0.031 µg/mL | COc1ccc2nccc([C@@H](O)[C@H](O)[C@H]3CC[C@H](NCc4ccc5c(n4)NC(=O)CS5)CC3)c2n1 [Example 3, 6-(trans-{4-[(1R,2R)-1,2-dihydroxy-2-(6-methoxy-[1,5]naphthyridin-4-yl)-ethyl]-cyclohexylamino}-methyl)-4H-pyrido[3,2-b][1,4]thiazin-3-one] |
| 0.063 µg/mL (≈ 0.134 µM) | ≤ 0.031 µg/mL | ≤ 0.031 µg/mL | COc1cnc2cccc([C@@H](O)[C@H](O)[C@H]3CC[C@H](NC/C=C/c4cc(F)ccc4F)CC3)c2n1 [Example 10, (1R,2R)-1-{trans-4-[(E)-3-(2,5-difluoro-phenyl)-allylamino]-cyclohexyl}-2-(3-methoxy-quinoxalin-5-yl)-ethane-1,2-diol] |
| 0.125 µg/mL (≈ 0.27 µM) | 0.031 µg/mL (≈ 0.0669 µM) | 0.063 µg/mL (≈ 0.136 µM) | COc1ccc2nccc(C[C@@H](O)[C@H]3CC[C@H](NCc4ccc5c(n4)NC(=O)CO5)CC3)c2n1 [Example 12, 6-(trans{4-[1-(1R)-hydroxy-2-(6-methoxy-[1,5]naphthyridin-4-yl)-ethyl]-cyclohexylamino}-methyl)-4H-pyrido[3,2-b][1,4]oxazin-3-one] |
